These results are taken from US8336545B2, “Methods and systems for operating an aerosol generator” (priority 2001, dated 2012).

For data set [1], the system named is Gram-negative pneumonia. Format: in vivo, patients. As to the method: A study, using a double-blind, placebo-controlled protocol, was conducted of nebulized amikacin delivered using one or more embodiments of the pulmonary drug delivery system of the present invention in ventilated patients with Gram-negative pneumonia. The aerosol therapy was adjunctive to IV therapy per American Thoracic Society (ATS) guidelines. Patients were randomized equally to three study arms. Arm 1 patients received an aerosolized dose of 400 mg amikacin once daily, alternating with a placebo on a twelve hour schedule. Arm 2 patients received 400 mg of amikacin twice daily (i.e. […]). Patients in Arm 3 were randomized to two aerosol treatments of placebo every twelve hours. The placebo was Normal saline. Peak amikacin concentration was determined in serum collected 0.25, 1, 2, and 4 hours after delivery of the dose on days 1 and 3, and the data was used to calculate Cmax. Trough concentrations were determined daily 30 minutes prior to the first daily dose. A PDDS/ventilator circuit configuration was as described for Example B. The microprocessor was set to deliver aerosol during the first approximately 75% of the inspiration, to achieve aerosol drug deposition of 50-75% of the dose within approximately 45 to 60 minutes. Amikacin levels were monitored by daily blood sampling.
The embodiments of devices, apparatus and/or methods of the present invention thus reduce the number of antibiotics required systemically to achieve a therapeutic result.

Data set [2] relates to Gram-negative pneumonia. The data set is described as follows: Example C: clinical outcome, IV antibiotic days and tolerability. As to conditions: placebo group versus aerosol group, p=0.02. In kind it is in vivo, patients. How it is done:
(§1) A study, using a double-blind, placebo-controlled protocol, was conducted of nebulized amikacin delivered using one or more embodiments of the pulmonary drug delivery system of the present invention in ventilated patients with Gram-negative pneumonia. The aerosol therapy was adjunctive to IV therapy per American Thoracic Society (ATS) guidelines. In this study, sixty seven patients received at least one dose of aerosol medication. Patients were randomized equally to three study arms. Arm 1 patients received an aerosolized dose of 400 mg amikacin once daily, alternating with a placebo on a twelve hour schedule. Arm 2 patients received 400 mg of amikacin twice daily (i.e. […]). Patients in Arm 3 were randomized to two aerosol treatments of placebo every twelve hours. The placebo was Normal saline. The amikacin concentration was determined in TA collected 15 min and 1, 2, 4, 8 and 12 hours after delivery of the morning dose on Days 1 and 3. A PDDS/ventilator circuit configuration was as described for Example B. The microprocessor was set to deliver aerosol during the first approximately 75% of the inspiration, to achieve aerosol drug deposition of 50-75% of the dose, within approximately 45 to 60 minutes. Amikacin levels were monitored by daily blood sampling.

Data set [3] is classed as in vivo. As to conditions: all Arm 1 and 2 patients. As to the method:
A study, using a double-blind, placebo-controlled protocol, was conducted of nebulized amikacin delivered using one or more embodiments of the pulmonary drug delivery system of the present invention in ventilated patients with Gram-negative pneumonia. The aerosol therapy was adjunctive to IV therapy per American Thoracic Society (ATS) guidelines. Such guidelines are fully set forth, for example, in the American Journal of Respiratory Critical Care Medicine, Vol 171, pages 388-416 (2005), incorporated by reference herein in its entirety. Twelve patients were randomized equally to three study arms: Arm 1 received an aerosolized dose of 400 mg amikacin once daily, and thereafter alternating every twelve hours with placebo. Arm 2 patients received 400 mg of amikacin twice daily (i.e. […]). Patients in Arm 3 were randomized to two aerosolized treatments of placebo every twelve hours. The placebo was Normal saline. […] Amikacin levels were monitored by daily blood sampling. […] The apparent volume of epithelial lining fluid (ELF) recovered by BAL was determined by using urea as an endogenous marker of dilution. The same day, the amikacin concentration was determined in tracheal aspirates (TA) collected 15 min and 1, 2, 4, 8 and 12 hours post aerosol delivery.

The subject of data set [4] is Gram-negative, pneumonia-causing bacteria. As to conditions: locally in TA; cited from earlier work.
On the set-up of data set [5]: species or system patients. As to conditions: in vivo. As to the method: In this Example, the dose-response to aerosolized amikacin, administered in accordance with one or more embodiments of devices, apparatus and/or methods of the present invention was evaluated, as was the ability to deliver a predefined target multiple of an MIC for Gram-negative bacteria causing pneumonia, including, Pseudomonas species, in the tracheal aspirates (TA). […] Thus the desired multiple is 6,400 μg/mL.
as §1

Where [6] appears, read: 400 mg daily (N = 20), percent of patients.
Where [7] appears, read: 400 mg twice daily (N = 16), count.
The mark [8] stands for this setting: 400 mg twice daily (N = 16), percent of patients.

Read-outs that look alike come from different tables or passages of the source.

For `NCC[C@H](O)C(=O)N[C@@H]1C[C@H](N)[C@@H](O[C@H]2O[C@H](CN)[C@@H](O)[C@H](O)[C@H]2O)[C@H](O)[C@H]1O[C@H]1O[C@H](CO)[C@@H](O)[C@H](N)[C@H]1O` [amikacin], in the data set with Gram-negative pneumonia [1] (400 mg BID, end of treatment (mean of seven days)), the “mean IV antibiotics at end of treatment, aerosolized placebo relative to twice daily aerosolized amikacin” value is listed as “about two”. Further, the “Total Number of Daily Antimicrobials” value in the data set with Gram-negative pneumonia [1] (400 mg daily (N = 20)) came to 118; with Gram-negative pneumonia [1] (400 mg twice daily (N = 16)), 75. For the same compound, the “Number of Patients With at Least One Daily Antimicrobial” value is 19 in the data set on Gram-negative pneumonia [1] (400 mg daily (N = 20), count); “(95.0%)” in the data set with Gram-negative pneumonia [1] (setting [6]); 16 with Gram-negative pneumonia [1] (setting [7]); “(100.0%)” with Gram-negative pneumonia [1] (setting [8]). The “patients with ANTIBACTERIALS FOR SYSTEMIC USE” value is 18 with Gram-negative pneumonia [1] (400 mg daily (N = 20), count); “(90.0%)” in the data set with Gram-negative pneumonia [1] (setting [6]); 16 with Gram-negative pneumonia [1] (setting [7]); “(100.0%)” in the data set on Gram-negative pneumonia [1] (setting [8]). In the data set with Gram-negative pneumonia [2], the “IV antibiotic days at the end of aerosol administration” value is “placebo group had statistically more IV antibiotic days then the aerosol group”. In data set [3], the “amikacin levels versus highest MIC values” is listed as “exceeded the highest MIC values for pathogens causing Gram-negative pneumonia”. Moreover, the “reference MIC value” in data set [4] is 256 µg/mL. Further, in data set [5] (human), the “TA levels of amikacin” value was “exceeded 1,100 μg/mL”. In addition, the “TA level as multiple of the reference MIC target value” in data set [5] was “at least four”. For the same compound, in data set [5], the “amikacin level versus highest MIC values” was “exceeded the highest MIC values for most Gram negative pathogens causing pneumonia”.
